Each block holds one compound with its values, some of them ahead of it.
Key:
Assay in all cases: KINOMEscan competition binding
Conditions in all cases: compound 10.0 µM
[1] = test system: ABL1 (human), P00519 [F317L]
[2] = test system: ABL1 (human), P00519 [M351T]
[3] = test system: ABL1 (human), P00519 [Y253F]
[4] = target: ACVR2B (human) (UniProt Q13705)
[5] = target: AURKC (human) (UniProt Q9UQB9)
[6] = target: CAMK1D (human) (UniProt Q8IU85)
[7] = target: CDKL3 (human) (UniProt Q8IVW4)
[8] = target: CSNK2A1 (human) (UniProt P68400)
Sequence of CSNK2A1 (human) (P68400 whole entry, looked up): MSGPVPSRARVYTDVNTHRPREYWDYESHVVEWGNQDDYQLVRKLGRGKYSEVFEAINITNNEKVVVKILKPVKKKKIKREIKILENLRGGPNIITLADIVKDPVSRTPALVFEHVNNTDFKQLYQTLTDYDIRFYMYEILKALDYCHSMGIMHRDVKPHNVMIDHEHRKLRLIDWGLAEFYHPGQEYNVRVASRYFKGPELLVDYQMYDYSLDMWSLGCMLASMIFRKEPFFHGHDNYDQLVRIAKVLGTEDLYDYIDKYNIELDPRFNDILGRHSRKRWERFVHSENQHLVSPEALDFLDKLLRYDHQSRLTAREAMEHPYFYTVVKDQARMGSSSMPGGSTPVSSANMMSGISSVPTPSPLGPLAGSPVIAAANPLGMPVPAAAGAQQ

[9] = target: DAPK3 (human) (UniProt O43293)
[10] = target: DCLK3 (human) (UniProt Q9C098)
[11] = target: EPHA2 (human) (UniProt P29317)
[12] = target: FLT3 (human) (UniProt P36888)
[13] = test system: FLT3 (human), P36888 [D835H]
[14] = test system: FLT3 (human), P36888 [ITD]
[15] = target: GSK3A (human) (UniProt P49840)
Sequence of GSK3A (human) (P49840 whole entry, looked up): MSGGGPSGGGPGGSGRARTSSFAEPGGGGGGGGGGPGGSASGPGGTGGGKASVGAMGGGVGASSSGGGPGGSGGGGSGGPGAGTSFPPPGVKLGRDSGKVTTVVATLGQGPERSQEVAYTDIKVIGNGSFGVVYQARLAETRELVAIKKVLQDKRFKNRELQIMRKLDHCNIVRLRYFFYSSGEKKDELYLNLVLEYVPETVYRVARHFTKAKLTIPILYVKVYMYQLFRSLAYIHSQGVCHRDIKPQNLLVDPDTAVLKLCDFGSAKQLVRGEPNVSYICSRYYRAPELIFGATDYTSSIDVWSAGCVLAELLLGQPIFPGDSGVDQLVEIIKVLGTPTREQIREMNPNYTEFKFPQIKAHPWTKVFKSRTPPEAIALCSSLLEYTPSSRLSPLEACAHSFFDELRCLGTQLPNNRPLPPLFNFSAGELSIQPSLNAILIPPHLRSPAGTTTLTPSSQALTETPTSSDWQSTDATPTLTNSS

[16] = target: HUNK (human) (UniProt P57058)
[17] = target: KDR (human) (UniProt P35968)
[18] = target: LIMK1 (human) (UniProt P53667)
[19] = target: MAP2K3 (human) (UniProt P46734)
Sequence of MAP2K3 (human) (P46734 whole entry, looked up): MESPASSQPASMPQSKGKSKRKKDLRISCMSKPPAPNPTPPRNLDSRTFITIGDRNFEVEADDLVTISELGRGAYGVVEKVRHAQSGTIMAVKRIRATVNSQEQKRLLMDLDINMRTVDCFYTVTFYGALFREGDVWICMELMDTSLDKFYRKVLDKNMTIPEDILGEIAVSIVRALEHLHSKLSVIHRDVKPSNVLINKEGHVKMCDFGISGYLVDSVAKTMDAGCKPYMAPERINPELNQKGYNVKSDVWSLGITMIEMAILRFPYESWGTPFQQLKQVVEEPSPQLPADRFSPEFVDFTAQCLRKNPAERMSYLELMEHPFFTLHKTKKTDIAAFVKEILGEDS

[20] = target: MAP4K2 (human) (UniProt Q12851)
[21] = target: MAPK11 (human) (UniProt Q15759)
[22] = test system: MET (human), P08581 [M1250T]
[23] = target: MUSK (human) (UniProt O15146)
[24] = target: PDGFRA (human) (UniProt P16234)
[25] = target: PIK3C2B (human) (UniProt O00750)
[26] = test system: PIK3CA (human), P42336 [C420R]
[27] = test system: PIK3CA (human), P42336 [E542K]
[28] = target: PRKCH (human) (UniProt P24723)
Sequence of PRKCH (human) (P24723 whole entry, looked up): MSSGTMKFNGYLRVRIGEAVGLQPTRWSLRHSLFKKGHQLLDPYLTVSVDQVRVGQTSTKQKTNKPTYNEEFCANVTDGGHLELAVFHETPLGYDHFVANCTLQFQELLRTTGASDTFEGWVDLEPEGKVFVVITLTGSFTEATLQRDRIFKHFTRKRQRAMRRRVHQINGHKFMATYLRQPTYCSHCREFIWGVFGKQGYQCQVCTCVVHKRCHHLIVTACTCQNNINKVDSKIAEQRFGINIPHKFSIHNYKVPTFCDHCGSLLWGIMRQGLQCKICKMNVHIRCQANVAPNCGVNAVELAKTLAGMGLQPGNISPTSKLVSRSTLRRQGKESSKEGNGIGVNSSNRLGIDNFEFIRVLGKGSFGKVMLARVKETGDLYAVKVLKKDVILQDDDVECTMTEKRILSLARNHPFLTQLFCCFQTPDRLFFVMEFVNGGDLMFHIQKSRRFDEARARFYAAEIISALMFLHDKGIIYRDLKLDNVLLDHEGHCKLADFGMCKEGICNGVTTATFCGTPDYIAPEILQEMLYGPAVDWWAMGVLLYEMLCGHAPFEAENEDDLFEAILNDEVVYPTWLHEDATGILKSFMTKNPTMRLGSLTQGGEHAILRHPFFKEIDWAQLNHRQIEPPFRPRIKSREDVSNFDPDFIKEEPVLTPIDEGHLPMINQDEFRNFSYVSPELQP

[29] = target: PRPF4B (human) (UniProt Q13523)
[30] = target: RIOK1 (human) (UniProt Q9BRS2)
[31] = target: RIPK1 (human) (UniProt Q13546)
[32] = target: RPS6KA1 KD2 (human) (UniProt Q15418)
[33] = target: RPS6KA2 KD2 (human) (UniProt Q15349)
[34] = target: SRC (human) (UniProt P12931)
[35] = target: STK17B (human) (UniProt O94768)
[36] = target: STK24 (human) (UniProt Q9Y6E0)
[37] = target: TBK1 (human) (UniProt Q9UHD2)
Sequence of TBK1 (human) (Q9UHD2 whole entry, looked up): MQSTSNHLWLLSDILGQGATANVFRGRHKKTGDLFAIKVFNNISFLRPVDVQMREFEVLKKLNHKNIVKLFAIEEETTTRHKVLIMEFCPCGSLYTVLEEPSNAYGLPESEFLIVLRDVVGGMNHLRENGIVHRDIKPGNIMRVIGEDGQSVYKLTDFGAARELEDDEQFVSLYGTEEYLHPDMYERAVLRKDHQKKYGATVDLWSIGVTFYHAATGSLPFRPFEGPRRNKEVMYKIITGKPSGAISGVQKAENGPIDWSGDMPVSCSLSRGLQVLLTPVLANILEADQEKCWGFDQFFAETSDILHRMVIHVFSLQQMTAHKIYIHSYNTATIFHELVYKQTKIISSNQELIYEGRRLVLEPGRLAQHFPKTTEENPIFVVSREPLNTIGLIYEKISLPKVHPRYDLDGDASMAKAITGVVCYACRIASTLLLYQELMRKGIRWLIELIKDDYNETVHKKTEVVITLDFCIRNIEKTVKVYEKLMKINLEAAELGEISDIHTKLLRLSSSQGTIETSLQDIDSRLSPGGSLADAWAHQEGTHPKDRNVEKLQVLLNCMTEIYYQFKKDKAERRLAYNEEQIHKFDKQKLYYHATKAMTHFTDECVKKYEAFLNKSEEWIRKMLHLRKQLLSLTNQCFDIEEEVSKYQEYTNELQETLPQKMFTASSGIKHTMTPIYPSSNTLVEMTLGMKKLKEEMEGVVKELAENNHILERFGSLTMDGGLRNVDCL

[38] = target: TESK1 (human) (UniProt Q15569)
[39] = target: TYRO3 (human) (UniProt Q06418)
Sequence of TYRO3 (human) (Q06418 whole entry, looked up): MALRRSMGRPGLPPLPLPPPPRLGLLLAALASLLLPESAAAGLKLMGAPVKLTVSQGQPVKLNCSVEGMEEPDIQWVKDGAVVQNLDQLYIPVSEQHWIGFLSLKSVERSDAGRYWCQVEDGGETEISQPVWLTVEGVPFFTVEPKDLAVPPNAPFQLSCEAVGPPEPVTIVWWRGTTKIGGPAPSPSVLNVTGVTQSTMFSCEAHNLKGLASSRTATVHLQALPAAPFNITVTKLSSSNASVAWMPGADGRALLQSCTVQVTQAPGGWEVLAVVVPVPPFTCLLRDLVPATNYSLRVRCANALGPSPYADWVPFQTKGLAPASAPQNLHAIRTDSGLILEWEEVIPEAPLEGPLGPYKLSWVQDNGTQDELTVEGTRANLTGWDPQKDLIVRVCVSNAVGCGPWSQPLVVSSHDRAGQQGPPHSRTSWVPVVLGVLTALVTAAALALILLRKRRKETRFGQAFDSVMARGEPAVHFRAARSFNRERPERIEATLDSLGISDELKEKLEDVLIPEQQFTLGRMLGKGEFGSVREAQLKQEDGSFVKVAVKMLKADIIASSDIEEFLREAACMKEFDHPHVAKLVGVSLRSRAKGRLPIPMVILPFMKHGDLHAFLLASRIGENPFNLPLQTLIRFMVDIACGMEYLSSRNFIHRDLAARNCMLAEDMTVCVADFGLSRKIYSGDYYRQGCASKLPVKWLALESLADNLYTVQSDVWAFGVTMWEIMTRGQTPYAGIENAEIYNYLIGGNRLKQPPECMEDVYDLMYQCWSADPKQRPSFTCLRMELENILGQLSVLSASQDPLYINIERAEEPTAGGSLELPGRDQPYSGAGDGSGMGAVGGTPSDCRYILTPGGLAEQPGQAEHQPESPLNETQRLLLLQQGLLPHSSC

[40] = target: WEE2 (human) (UniProt P0C1S8)
Sequence of WEE2 (human) (P0C1S8 whole entry, looked up): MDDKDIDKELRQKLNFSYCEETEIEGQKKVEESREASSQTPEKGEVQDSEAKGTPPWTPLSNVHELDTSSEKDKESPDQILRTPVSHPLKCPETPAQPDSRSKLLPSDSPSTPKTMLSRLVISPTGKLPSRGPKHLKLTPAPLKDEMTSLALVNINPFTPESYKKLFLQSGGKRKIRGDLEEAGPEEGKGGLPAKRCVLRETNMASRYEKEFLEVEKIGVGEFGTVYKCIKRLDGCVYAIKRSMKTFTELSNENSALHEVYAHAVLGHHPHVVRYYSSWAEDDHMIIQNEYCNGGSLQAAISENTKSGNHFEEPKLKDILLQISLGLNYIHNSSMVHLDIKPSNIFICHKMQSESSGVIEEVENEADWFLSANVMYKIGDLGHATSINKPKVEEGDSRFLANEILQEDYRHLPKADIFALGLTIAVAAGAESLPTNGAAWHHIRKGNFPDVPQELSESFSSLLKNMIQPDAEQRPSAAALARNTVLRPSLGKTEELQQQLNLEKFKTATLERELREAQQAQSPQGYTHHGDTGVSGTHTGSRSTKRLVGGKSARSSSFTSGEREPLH

[41] = target: YES1 (human) (UniProt P07947)

Sequence of CAMK1D (human) (Q8IU85 whole entry, looked up): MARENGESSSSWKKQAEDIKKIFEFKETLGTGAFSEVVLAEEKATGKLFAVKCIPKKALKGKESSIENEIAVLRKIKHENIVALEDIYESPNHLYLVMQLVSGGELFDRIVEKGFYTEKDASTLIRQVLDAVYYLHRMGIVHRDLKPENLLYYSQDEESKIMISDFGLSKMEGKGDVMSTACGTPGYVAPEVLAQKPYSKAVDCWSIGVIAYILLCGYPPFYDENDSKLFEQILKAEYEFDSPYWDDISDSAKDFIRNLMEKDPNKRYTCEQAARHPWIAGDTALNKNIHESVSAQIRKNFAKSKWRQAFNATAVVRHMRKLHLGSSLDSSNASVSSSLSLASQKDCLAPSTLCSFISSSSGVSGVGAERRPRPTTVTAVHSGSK
Sequence of AURKC (human) (Q9UQB9 whole entry, looked up): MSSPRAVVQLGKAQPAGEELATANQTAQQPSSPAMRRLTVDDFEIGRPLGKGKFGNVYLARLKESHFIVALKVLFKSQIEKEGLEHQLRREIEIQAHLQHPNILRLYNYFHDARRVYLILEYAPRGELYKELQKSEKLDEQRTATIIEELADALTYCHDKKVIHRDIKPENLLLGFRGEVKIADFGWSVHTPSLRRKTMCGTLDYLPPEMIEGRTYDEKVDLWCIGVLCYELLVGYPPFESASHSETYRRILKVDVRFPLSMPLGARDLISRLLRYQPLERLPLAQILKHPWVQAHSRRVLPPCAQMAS

- kinase still bound, per cent of control [1]: 100%
- kinase still bound, per cent of control [2]: 99%
- kinase still bound, per cent of control [3]: 100%
- kinase still bound, per cent of control [4]: 100%
- kinase still bound, per cent of control [5]: 92%
- kinase still bound, per cent of control [6]: 100%
- kinase still bound, per cent of control [7]: 52%
- kinase still bound, per cent of control [8]: 65%
- kinase still bound, per cent of control [9]: 83%
- kinase still bound, per cent of control [10]: 34%
- kinase still bound, per cent of control [11]: 96%
- kinase still bound, per cent of control [12]: 100%
- kinase still bound, per cent of control [13]: 74%
- kinase still bound, per cent of control [14]: 74%
- kinase still bound, per cent of control [15]: 0%
- kinase still bound, per cent of control [16]: 100%
- kinase still bound, per cent of control [17]: 100%
- kinase still bound, per cent of control [18]: 100%
- kinase still bound, per cent of control [19]: 87%
- kinase still bound, per cent of control [20]: 82%
- kinase still bound, per cent of control [21]: 100%
- kinase still bound, per cent of control [22]: 92%
- kinase still bound, per cent of control [23]: 100%
- kinase still bound, per cent of control [24]: 100%
- kinase still bound, per cent of control [25]: 91%
- kinase still bound, per cent of control [26]: 100%
- kinase still bound, per cent of control [27]: 100%
- kinase still bound, per cent of control [28]: 100%
- kinase still bound, per cent of control [29]: 100%
- kinase still bound, per cent of control [30]: 100%
- kinase still bound, per cent of control [31]: 100%
- kinase still bound, per cent of control [32]: 91%
- kinase still bound, per cent of control [33]: 100%
- kinase still bound, per cent of control [34]: 100%
- kinase still bound, per cent of control [35]: 84%
- kinase still bound, per cent of control [36]: 97%
- kinase still bound, per cent of control [37]: 96%
- kinase still bound, per cent of control [38]: 100%
- kinase still bound, per cent of control [39]: 100%
- kinase still bound, per cent of control [40]: 100%
- kinase still bound, per cent of control [41]: 100%
SMILES: Cc1cnc(-c2cnc(NCCNc3ccc(C#N)cn3)nc2-c2ccc(Cl)cc2Cl)[nH]1

- kinase still bound, per cent of control [1]: 100%
- kinase still bound, per cent of control [2]: 82%
- kinase still bound, per cent of control [3]: 100%
- kinase still bound, per cent of control [4]: 100%
- kinase still bound, per cent of control [5]: 96%
- kinase still bound, per cent of control [6]: 76%
- kinase still bound, per cent of control [7]: 100%
- kinase still bound, per cent of control [8]: 35%
- kinase still bound, per cent of control [9]: 69%
- kinase still bound, per cent of control [10]: 66%
- kinase still bound, per cent of control [11]: 100%
- kinase still bound, per cent of control [12]: 93%
- kinase still bound, per cent of control [13]: 32%
- kinase still bound, per cent of control [14]: 62%
- kinase still bound, per cent of control [15]: 0%
- kinase still bound, per cent of control [16]: 100%
- kinase still bound, per cent of control [17]: 100%
- kinase still bound, per cent of control [18]: 93%
- kinase still bound, per cent of control [19]: 86%
- kinase still bound, per cent of control [20]: 100%
- kinase still bound, per cent of control [21]: 98%
- kinase still bound, per cent of control [22]: 73%
- kinase still bound, per cent of control [23]: 100%
- kinase still bound, per cent of control [24]: 100%
- kinase still bound, per cent of control [25]: 100%
- kinase still bound, per cent of control [26]: 86%
- kinase still bound, per cent of control [27]: 100%
- kinase still bound, per cent of control [28]: 79%
- kinase still bound, per cent of control [29]: 100%
- kinase still bound, per cent of control [30]: 79%
- kinase still bound, per cent of control [31]: 100%
- kinase still bound, per cent of control [32]: 53%
- kinase still bound, per cent of control [33]: 78%
- kinase still bound, per cent of control [34]: 100%
- kinase still bound, per cent of control [35]: 100%
- kinase still bound, per cent of control [36]: 69%
- kinase still bound, per cent of control [37]: 90%
- kinase still bound, per cent of control [38]: 100%
- kinase still bound, per cent of control [39]: 100%
- kinase still bound, per cent of control [40]: 100%
- kinase still bound, per cent of control [41]: 100%
SMILES: Cn1cc(C2=C(c3ccc(Cl)cc3Cl)C(=O)NC2=O)c2ccccc21

- kinase still bound, per cent of control [1]: 100%
- kinase still bound, per cent of control [2]: 63%
- kinase still bound, per cent of control [3]: 100%
- kinase still bound, per cent of control [4]: 100%
- kinase still bound, per cent of control [5]: 92%
- kinase still bound, per cent of control [6]: 100%
- kinase still bound, per cent of control [7]: 76%
- kinase still bound, per cent of control [8]: 100%
- kinase still bound, per cent of control [9]: 81%
- kinase still bound, per cent of control [10]: 66%
- kinase still bound, per cent of control [11]: 95%
- kinase still bound, per cent of control [12]: 86%
- kinase still bound, per cent of control [13]: 99%
- kinase still bound, per cent of control [15]: 0.1%
- kinase still bound, per cent of control [16]: 81%
- kinase still bound, per cent of control [17]: 67%
- kinase still bound, per cent of control [18]: 100%
- kinase still bound, per cent of control [19]: 100%
- kinase still bound, per cent of control [20]: 100%
- kinase still bound, per cent of control [21]: 100%
- kinase still bound, per cent of control [22]: 93%
- kinase still bound, per cent of control [23]: 100%
- kinase still bound, per cent of control [24]: 100%
- kinase still bound, per cent of control [25]: 94%
- kinase still bound, per cent of control [26]: 95%
- kinase still bound, per cent of control [27]: 100%
- kinase still bound, per cent of control [28]: 100%
- kinase still bound, per cent of control [29]: 100%
- kinase still bound, per cent of control [30]: 100%
- kinase still bound, per cent of control [31]: 100%
- kinase still bound, per cent of control [32]: 100%
- kinase still bound, per cent of control [33]: 83%
- kinase still bound, per cent of control [34]: 78%
- kinase still bound, per cent of control [35]: 74%
- kinase still bound, per cent of control [36]: 84%
- kinase still bound, per cent of control [37]: 100%
- kinase still bound, per cent of control [38]: 100%
- kinase still bound, per cent of control [39]: 93%
- kinase still bound, per cent of control [40]: 100%
- kinase still bound, per cent of control [41]: 83%
SMILES: COc1ccc(CNC(=O)Nc2ncc([N+](=O)[O-])s2)cc1

— the kinase profiling compilation of Christmann-Franck et al. (2016)
